Measurements reported in US20100160297A1, “COMPOUNDS FOR PIM KINASE INHIBITION AND FOR TREATING MALIGNANCY” (Amnestix, Inc., priority 2008, published 2010).
“Also recorded” adds a separate entry of the source. Counter-ions that a name gives are not always drawn.

system: not given; test: not given; settings: not given

melting point [°C]	SMILES
219 to 221	COc1ccc2c(Cl)nccc2c1S(=O)(=O)N1CCCNCC1 (as salt: hydrochloride) [1-chloro-5-([1,4]diazepane-1-sulfonyl)-6-methoxy-isoquinoline]

biological target: T1, PIM-1 kinase (Homo sapiens, UniProt P11309); test: In vitro assay for PIM-1 kinase inhibition (PIM-1 Kinase Assay Kit, colorimetric ELISA); type: biochemical; settings: test compound 100 μM final concentration; normalized to positive control (no test compound) = 100% activity; 1.5 or 2.5 ng PIM-1 kinase, 200 μM ATP
T1 construct: purchased Cell Signaling Technology Inc., Boston, USA
Method: (§1) In vitro assays of PIM-1 kinase activity (1.5 ng) in the presence of increasing concentrations of the compounds A, B, C or D were performed as described within example 5. An assay without additional test compound served as positive control for the assay (pos) and an assay without PIM-1 kinase served as negative assay (neg). […] Each assay result was normalized in comparison to the positive control which was defined as 100% activity.
as §1, with “(2.5” for “(1.5”, “compound E” for “compounds A, B, C or D”
The in vitro assay for PIM-1 kinase inhibition was performed using the PIM-1 Kinase Assay Kit (Cell Signaling Technology Inc., Boston, USA) according to the manufacture's instruction. Briefly, 1.5 or 2.5 ng PIM-1 kinase has been dissolved in 50 μl assay buffer (25 mM Tris-Hcl (pH 7.5), 10 mM MgCl2, 5 mM beta-glycerophosphate, 0.1 mM Na3VO4, 2 mM DTT, 200 μM ATP, and 1.5 μM peptide substrate) and test compound has been added to a final concentration in a range of 0.1 to 100 μM. After 30 minutes incubation at ambient temperature the reaction was stopped by adding 50 μl Stop buffer (50 mM EDTA, pH 8) per reaction. An aliquot of 25 μl per reaction was diluted each by 75 μl water and transferred to a 96-well streptavidin-coated plate. After 60 minutes incubation and three times washing with PBS, 100 μl/well primary antibody (Phospho-Bad (Ser112) antibody, 1:1000 diluted in PBS) was added. After further 2 h incubation and three times washing with PBS, an usual colorimetric ELISA assay was performed using a HRP labeled second antibody according to the manufacture's instructions. A PIM kinase reaction without addition of a test compound served as positive control (pos) and an assay without PIM kinase served as negative control (neg). […] The PIM-1 kinase inhibition of the test compounds (1-chloro-5-([1,4]diazepane-1-sulfonyl)-8-propoxy-isoquinoline (compound A), 1-chloro-5-(piperazin-1-sulfonyl)-8-methoxy-isoquinoline (compound B), 1-methyl-5-([1,4]diazepane-1-sulfonyl)-8-methoxy-isoquinoline (compound C), and 1-chloro-5-([1,4]diazepane-1-sulfonyl)-6-methoxy-isoquinoline (compound D)) was measured in a first series of assays, and the one of the compound 5-([1,4]diazepane-1-sulfonyl)-8-methoxy-isoquinoline (compound E) was measured in a second series of assays. Within each series of assays the measured PIM-1 kinase activity was normalized in comparison to the positive control (pos) which was defined as 100% activity. […] The table below summarizes the percentage of the remaining PIM-1 kinase activity in the presence of the test compounds in a final concentration of 100 μM.

T1 sequence (P11309 whole entry): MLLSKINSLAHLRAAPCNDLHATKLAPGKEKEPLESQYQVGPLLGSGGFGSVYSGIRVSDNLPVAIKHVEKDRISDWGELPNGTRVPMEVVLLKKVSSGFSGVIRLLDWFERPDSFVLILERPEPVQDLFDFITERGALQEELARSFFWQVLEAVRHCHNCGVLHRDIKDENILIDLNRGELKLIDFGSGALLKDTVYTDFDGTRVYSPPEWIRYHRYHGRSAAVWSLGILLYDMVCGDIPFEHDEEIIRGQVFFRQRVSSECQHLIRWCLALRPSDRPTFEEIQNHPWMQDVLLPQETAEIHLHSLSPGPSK

% remaining PIM-1 kinase activity [%]	SMILES
17	COc1ccc(S(=O)(=O)N2CCCNCC2)c2ccnc(Cl)c12 [G, 1-chloro-8-methoxy-Fasudil, reference compound]

same assay, conditions: test compound 0.1 to 100 μM; FIG. 1 (1.5 ng PIM-1) and FIG. 2 (2.5 ng PIM-1)

SMILES	PIM-1 kinase inhibition (result in words)
COc1ccc(S(=O)(=O)N2CCNCC2)c2ccnc(Cl)c12 [B, 1-chloro-5-(piperazin-1-sulfonyl)-8-methoxy-isoquinoline]	potent PIM inhibitory effect; also recorded: potent PIM-1 kinase inhibitors
COc1ccc(S(=O)(=O)N2CCCNCC2)c2ccnc(C)c12 [C, 1-methyl-5-([1,4]diazepane-1-sulfonyl)-8-methoxy-isoquinoline]	potent PIM inhibitory effect; also recorded: potent PIM-1 kinase inhibitors
CCCOc1ccc(S(=O)(=O)N2CCCNCC2)c2ccnc(Cl)c12 [Compound A, 1-chloro-5-([1,4]diazepane-1-sulfonyl)-8-propoxy-isoquinoline]	potent PIM inhibitory effect; also recorded: potent PIM-1 kinase inhibitors
COc1ccc2c(Cl)nccc2c1S(=O)(=O)N1CCCNCC1 [D, 1-chloro-5-([1,4]diazepane-1-sulfonyl)-6-methoxy-isoquinoline]	potent PIM inhibitory effect; also recorded: potent PIM-1 kinase inhibitors
COc1ccc(S(=O)(=O)N2CCCNCC2)c2ccncc12 [E, 5-([1,4]diazepane-1-sulfonyl)-8-methoxy-isoquinoline]	at most a moderate PIM-1 kinase inhibition; also recorded: only weak PIM inhibitory effect
O=S(=O)(c1cccc2cnccc12)N1CCCNCC1 [F, Fasudil, reference compound]	at the most very weak PIM-1 inhibition
COc1ccc(S(=O)(=O)N2CCCNCC2)c2ccnc(Cl)c12 [G, 1-chloro-8-methoxy-Fasudil, reference compound]	very potent PIM-1 inhibitor
